Experimental data published in US11279733B2, “Peptide antibiotics” (priority 2017, dated 2022).
In brackets after ≈: the same amount, converted by molar mass. Like-named read-outs stand apart in the source and are kept apart here. Positions of bridges follow the written chain, without caps; N, C: chain ends. Non-standard residues stand in square brackets, D forms with d. Residues, ends and D or L forms follow the SMILES beside them. ξ: configuration not given here. *: point of attachment. Decanoyl(3R-OH) = CCCCCCC[C@@H](O)CC(=O)*; Decanoyl(3ξ-OH) = CCCCCCCC(O)CC(=O)*; dDab = NCC[C@@H](N)C(=O)O; Orn = NCCC[C@H](N)C(=O)O; Dab = NCC[C@H](N)C(=O)O; Dap = NC[C@H](N)C(=O)O

Key:
[1] = in vitro; details: human
Protocol: Cytotoxicity of the synthesised peptides was evaluated by comparison with commercially available colistin (polymyxin E), polymyxin B (Sigma chemical Co., St. Louis, Mo., U.S.A.) and synthetic octapeptin C4 by conducting lactate dehydrogenase (LDH) assay. CC50 values calculated based on curve fitting of dose dependent inhibition of cell growth represented the cytotoxicity of the peptide. Human kidney 2 (HK2) cells were seeded as 2000 cells per well in a 384 well cell culture plate in a final volume of 20 μL in DMEM/F12 medium (Invitrogen #11330057), in which 10% of FBS was added. Cells were incubated for 24 hours at 37° C., 5% CO2 to allow cells to attach to the plates. Similar conditions were employed for HEK293 and HepG2 cytotoxicity assays.
Cytotoxicity to HEK293 and HepG2 cells was determined using the resazurin assay (McMillian, M. K.; Li, L.; Parker, J. B.; Patel, L.; Zhong, Z.; Gunnett, J. W.; Powers, W. J.; Johnson, M. D. An improved resazurin-based cytotoxicity assay for hepatic cells; Cell Biol. Toxicol. 2002, 18, 157-173; O'Brien, J.; Wilson, I.; Orton, T.; Pognan, F. Investigation of the Alamar Blue (resazurin) fluorescent dye for the assessment of mammalian cell cytotoxicity. Eur. J. Biochem. 2000, 267, 5421-5426). In brief, HEK293 and HepG2 cells were seeded at 4000 cells/well in black-wall, clear-bottom 384-well plates (Corning, Australia) and incubated for 24 h at 37° C., 5% CO2. Compounds were then added into each well. After 24 h incubation, 5 μM resazurin was added per well and incubated at 37° C. for 2 h. Fluorescence intensity was then read using a Polarstar Omega with excitation/emission 560/590. The data was then analyzed using GraphPad Prism 6 software. CC50 values were determined using GraphPad Prism 6 software (Inc. La Jolla, Calif.).

[2] = test system: K. pneumoniae ATCC 700603, MDR; details: ATCC 700603
Outline: (§1)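 Mid-log cultures grown in Mueller Hinton broth at 37° C were tested by 2-fold broth microdilution at 5×10^5 CFU/mL final. Compounds were dissolved in water and tested over a final range of 32 to 0.015 μg/mL.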

[3] = test system: P. aeruginosa GN_043, PmxR; details: for MIC, P. aeruginosa FADDI-PA070, PmxR: Table 5
Outline: as §1

[4] = test system: K. pneumoniae ATCC BAA-2146, NDM-1 pos; details: ATCC BAA-2146
Outline: as §1

[5] = test system: E. coli ATCC 25922; details: ATCC 25922
Outline: as §1

[6] = test system: A. baumannii GN_093 PmxR; details: GN 093 PmxR
Outline: as §1

[7] = test system: K. pneumoniae GN_102 PmxR; details: GN 102 PmxR
Outline: as §1

[8] = test system: P. aeruginosa GN_105, PmxR; details: GN 105, PmxR
Outline: as §1

[9] = test system: S. aureus ATCC 25923, MSSA; details: ATCC 25923
Outline: as §1

[10] = test system: K. pneumoniae ATCC 13883; details: ATCC 13883
Outline: as §1

[11] = test system: K. pneumoniae GN_106, PmxR; details: GN 106, PmxR
Outline: as §1

[12] = test system: A. baumannii ATCC 19606; details: ATCC 19606
Outline: as §1

[13] = test system: P. aeruginosa ATCC 27853; details: ATCC 27853
Outline: as §1

SMILES | CC50 at 24 h [1] [µM] | MIC K. pneumoniae ATCC 700603, MDR [2] [µg/mL] | MIC P. aeruginosa GN_043, PmxR ([3]; polymyxin-resistant) [µg/mL] | MIC K. pneumoniae ATCC BAA-2146, NDM-1 pos [4] [µg/mL] | MIC E. coli ATCC 25922 [5] [µg/mL] | MIC A. baumannii GN_093 PmxR [6] [µg/mL] | MIC K. pneumoniae GN_102 PmxR [7] [µg/mL] | MIC P. aeruginosa GN_105, PmxR [8] [µg/mL] | MIC S. aureus ATCC 25923, MSSA [9] [µg/mL] | MIC K. pneumoniae ATCC 13883 [10] [µg/mL] | MIC K. pneumoniae GN_106, PmxR [11] [µg/mL] | MIC A. baumannii ATCC 19606 [12] [µg/mL] | MIC P. aeruginosa ATCC 27853 [13] [µg/mL] | MIC, K. pneumoniae ATCC 700603, MDR [2] [µg/mL] | MIC, P. aeruginosa FADDI-PA070, PmxR ([3]; polymyxin-resistant) [µg/mL] | MIC, K. pneumoniae ATCC BAA-2146, NDM-1 pos [4] [µg/mL] | MIC, E. coli ATCC 25922 [5] [µg/mL] | MIC, A. baumannii Cl Ptyela 10073 4512:2, PmxR [6] [µg/mL] | MIC, K. pneumoniae Cl Koprana 10065 0661:1, PmxR [7] [µg/mL] | MIC, P. aeruginosa PA9704, PmxR [8] [µg/mL] | other results
CCCCCCC[C@@H](O)CC(=O)N[C@H](CCN)C(=O)N[C@H]1CCNC(=O)[C@H](CC(C)C)NC(=O)[C@H](CN)NC(=O)[C@H](CCN)NC(=O)[C@H](CC(C)C)NC(=O)[C@@H](Cc2ccccc2)NC(=O)[C@H](CCN)NC1=O [compound 987, 3(R)OH-nC9CO-D-Dab-cyc[L-Dab-L-Dab-D-Phe-L-Leu-L-Dab-L-Dap-L-Leu]] ({Decanoyl(3R-OH)}-[dDab][Dab][Dab][dF]L[Dab][Dap]L; lactam 2-C) | > 300 | 4 (≈ 3.88 µM) | 2 (≈ 1.94 µM) | 4 (≈ 3.88 µM) | 8 (≈ 7.76 µM) | 8 (≈ 7.76 µM) | 16 (≈ 15.5 µM) | 4 (≈ 3.88 µM) | 16 (≈ 15.5 µM) | 4 (≈ 3.88 µM) | 16 (≈ 15.5 µM) | 1 (≈ 0.971 µM) | 2 (≈ 1.94 µM) | – | – | – | – | – | – | – | –
CCCCCCC[C@@H](O)CC(=O)N[C@H](CCN)C(=O)N[C@H]1CCNC(=O)[C@H](CC(C)C)NC(=O)[C@H](CCCCN)NC(=O)[C@H](CCN)NC(=O)[C@H](CC(C)C)NC(=O)[C@@H](Cc2ccccc2)NC(=O)[C@H](CCN)NC1=O [compound 989, 3(R)OH-nC9CO-D-Dab-cyc[L-Dab-L-Dab-D-Phe-L-Leu-L-Dab-L-Lys-L-Leu]] ({Decanoyl(3R-OH)}-[dDab][Dab][Dab][dF]L[Dab]KL; lactam 2-C) | > 300 | 2 (≈ 1.86 µM) | 2 (≈ 1.86 µM) | 2 (≈ 1.86 µM) | 4 (≈ 3.73 µM) | 16 (≈ 14.9 µM) | 4 (≈ 3.73 µM) | 2 (≈ 1.86 µM) | 16 (≈ 14.9 µM) | 4 (≈ 3.73 µM) | 4 (≈ 3.73 µM) | 8 (≈ 7.46 µM) | 2 (≈ 1.86 µM) | – | – | – | – | – | – | – | –
CCCCCCC[C@@H](O)CC(=O)N[C@H](CCN)C(=O)N[C@H]1CCNC(=O)[C@H](CC(C)C)NC(=O)[C@H](CCN)NC(=O)[C@H](CCN)NC(=O)[C@H](CC(C)C)NC(=O)[C@@H](Cc2ccccc2)NC(=O)[C@H](CCCN)NC1=O [compound 994, 3(R)OH-nC9CO-D-Dab-cyc[L-Dab-L-Orn-D-Phe-L-Leu-L-Dab-L-Dab-L-Leu]] ({Decanoyl(3R-OH)}-[dDab][Dab][Orn][dF]L[Dab][Dab]L; lactam 2-C) | > 300 | – | – | – | – | – | – | – | – | – | – | – | – | 8 (≈ 7.56 µM) | >32 | 8 (≈ 7.56 µM) | 8 (≈ 7.56 µM) | 32 (≈ 30.2 µM) | 4 (≈ 3.78 µM) | 8 (≈ 7.56 µM) | MIC, S. Aureus ATCC 25923, MSSA [9]: 32 µg/mL (≈ 30.2 µM); MIC, K. pneumoniae ATCC 13883 [10]: 4 µg/mL (≈ 3.78 µM); MIC, K. pneumoniae Cl 138-16347-20362, PmxR [11]: 4 µg/mL (≈ 3.78 µM); MIC, A. baumannii ATCC 19606 [12]: 32 µg/mL (≈ 30.2 µM); MIC, P. aeruginosa ATCC 27853 [13]: 2 µg/mL (≈ 1.89 µM)
CCCCCCC[C@@H](O)CC(=O)N[C@H](CCN)C(=O)N[C@H]1CCNC(=O)[C@H](CC(C)C)NC(=O)[C@H](CCN)NC(=O)[C@H](CCN)NC(=O)[C@H](CC(C)C)NC(=O)[C@@H](Cc2ccccc2)NC(=O)[C@H](CCCCN)NC1=O [compound 995, 3(R)OH-nC9CO-D-Dab-cyc[L-Dab-L-Lys-D-Phe-L-Leu-L-Dab-L-Dab-L-Leu]] ({Decanoyl(3R-OH)}-[dDab][Dab]K[dF]L[Dab][Dab]L; lactam 2-C) | > 300 | – | – | – | – | – | – | – | – | – | – | – | – | 8 (≈ 7.46 µM) | 8 (≈ 7.46 µM) | 8 (≈ 7.46 µM) | 8 (≈ 7.46 µM) | 32 (≈ 29.8 µM) | 4 (≈ 3.73 µM) | 8 (≈ 7.46 µM) | MIC, S. Aureus ATCC 25923, MSSA [9]: 32 µg/mL (≈ 29.8 µM); MIC, K. pneumoniae ATCC 13883 [10]: 8 µg/mL (≈ 7.46 µM); MIC, K. pneumoniae Cl 138-16347-20362, PmxR [11]: 8 µg/mL (≈ 7.46 µM); MIC, A. baumannii ATCC 19606 [12]: >32 µg/mL; MIC, P. aeruginosa ATCC 27853 [13]: 4 µg/mL (≈ 3.73 µM)
CCCCCCC[C@@H](O)CC(=O)N[C@H](CCN)C(=O)N[C@H]1CCNC(=O)[C@H](CC(C)C)NC(=O)[C@H](CCN)NC(=O)[C@H](CCN)NC(=O)[C@H](CC(C)C)NC(=O)[C@H](Cc2ccccc2)NC(=O)[C@H](CCN)NC1=O [compound 5002, 3(R)OH-nC9CO-D-Dab-cyc[L-Dab-L-Dab-L-Phe-L-Leu-L-Dab-L-Dab-L-Leu]] ({Decanoyl(3R-OH)}-[dDab][Dab][Dab]FL[Dab][Dab]L; lactam 2-C) | > 300 | 16 (≈ 15.3 µM) | – | 16 (≈ 15.3 µM) | 32 (≈ 30.6 µM) | >32 | 32 (≈ 30.6 µM) | >32 | 32 (≈ 30.6 µM) | >32 | >32 | >32 | 4 (≈ 3.83 µM) | – | – | – | – | – | – | – | MIC P. aeruginosa GN_043, PmxR ([3]; P. aeruginosa GN_043, PmxR): 8 µg/mL (≈ 7.66 µM)
CCCCCCCC(O)CC(=O)N[C@H](CCN)C(=O)N[C@H]1CCNC(=O)[C@H](CC(C)C)NC(=O)[C@H](CCN)NC(=O)[C@H](CCN)NC(=O)[C@H](CC(C)C)NC(=O)[C@@H](Cc2ccccc2)NC(=O)[C@H](CCN)NC1=O (stereo partly drawn) [compound 5013, 3OH-nC9CO-D-Dab-cyc[L-Dab-L-Dab-D-Phe-L-Leu-L-Dab-L-Dab-L-Leu]] ({Decanoyl(3ξ-OH)}-[dDab][Dab][Dab][dF]L[Dab][Dab]L; lactam 2-C) | > 300 | 8 (≈ 7.66 µM) | – | 16 (≈ 15.3 µM) | 8 (≈ 7.66 µM) | 8 (≈ 7.66 µM) | 4 (≈ 3.83 µM) | 2 (≈ 1.92 µM) | 16 (≈ 15.3 µM) | 4 (≈ 3.83 µM) | 16 (≈ 15.3 µM) | 16 (≈ 15.3 µM) | 2 (≈ 1.92 µM) | – | – | – | – | – | – | – | MIC P. aeruginosa GN_043, PmxR [3]: 2 µg/mL (≈ 1.92 µM)
